These results are taken from paper PMC9492458, “Development and structure–activity relationships of tanshinones as selective 11β-hydroxysteroid dehydrogenase 1 inhibitors” (Natural Products and Bioprospecting, 2022).

Experiment [1] addresses T1, 11β-HSD1 in 3T3-L1 adipocytes (Mus musculus, UniProt P50172).
T1 construct: endogenous in cells; host or cells: 3T3-L1 adipocytes
In words: 11β-HSD1 activity assay in 3T3-L1 adipocytes. The class given is cell-based. As to conditions: for IC50: 1 h incubation, averages of three determinations, read-out: IC50, cellular assay on 3T3-L1 adipocyte against 11β-HSD1; for Emax: read-out: Max effect. As to the method: 11β-HSD1 enzyme inhibition in adipose tissue is believed to be important for achieving efficacy in vivo [11, 12]. Derivatives with potent enzymatic potency and excellent selectivity profiles (13, 14, 17, 28a, 28b and 30) were also evaluated their 11β-HSD1 inhibition in 3T3-L1 adipocyte.
The reductase activity of 11β-HSD1 in intact 3T3-L1 adipocytes was determined by measuring the rate of conversion of cortisone to cortisol. To explore the effect of compounds on 11β-HSD1 reductase activity, 3T3-L1 adipocytes were incubated for 1 h at 37 °C in serum-free DMEM containing 6.25 nmol/L [1,2-(N)^3H]-cortisone and different concentrations of compounds, according to experimental design. 0.1% DMSO was set as the vehicle control and MK544 was set as the positive control. At the end of the incubation, 80 μL of medium was pipetted into a transparent bottom 96-well plate, and 35 μL of SuperBlock Blocking Buffer containing 10 g/L of protein A-coated yttrium silicate beads and 3 mg/L of anti-cortisol antibodies was added. The mixtures were shaken in the dark for 2 h and then used for liquid scintillation readings. The inhibition effect was calculated by the following equation: Inhibition%=Data(compound)-Data(DMSO Vehicle)/Data(MK54410μM)-Data(DMSO Vehicle)×100%.

The target of the next experiment is T2, 11β-HSD1 in liver (Mus musculus, UniProt P50172).
T2 construct: from tissue
In words: Measurement of 11β-HSD1 activity in liver of ob/ob mice. It is filed as in vivo. The conditions noted are these: single oral dose 300 mg/kg. As to the method: After single oral administration of 1, 17 or 30 at dose of 300 mg/kg to ob/ob mice, the enzymatic activity of 11β-HSD1 in liver was measured.
B6.V-Lepob/Lepob mice (Jackson Laboratory, Bar Harbor, ME, USA) were bred at the Shanghai Institute of Materia Medica, Chinese Academy of Sciences. All mice were housed in a specific, pathogen-free class laboratory and were maintained at a controlled room temperature (22–24 °C) under a 12 h light–dark cycle with free access to water and food. The animal experiments were conducted in accordance with the guides by the Institutional Animal Care and Utilization Committee (IACUC) of Shanghai Institute of Materia Medica (SIMM), Chinese Academy of Sciences (CAS). The protocol was approved by the IACUC, SIMM, CAS with accreditation number of 2017-08-LY-67. All animal experiment complied with the ARRIVE guidelines for the care and use of laboratory animals.
Ob/ob mice (10 weeks’ old) were given a single dose of 1, 17, 30 (300 mg/kg) or vehicle (0.5% carboxymethyl cellulose, CMC), p.o. After 4 h and 8 h, animals were euthanized with an i.p injection of sodium pentobarbital (60 mg/kg) and the livers were isolated and stored as described above. The liver tissue was homogenized (1 mg/mL) in cold homogenization buffer, and […] of liver homogenates was used to analyze the 11β-HSD1 activity by SPA, as previously described.

In a further experiment the target is T3, mouse 11β-HSD2 (Mus musculus, UniProt P51661).
T3 sequence (P51661 1-386): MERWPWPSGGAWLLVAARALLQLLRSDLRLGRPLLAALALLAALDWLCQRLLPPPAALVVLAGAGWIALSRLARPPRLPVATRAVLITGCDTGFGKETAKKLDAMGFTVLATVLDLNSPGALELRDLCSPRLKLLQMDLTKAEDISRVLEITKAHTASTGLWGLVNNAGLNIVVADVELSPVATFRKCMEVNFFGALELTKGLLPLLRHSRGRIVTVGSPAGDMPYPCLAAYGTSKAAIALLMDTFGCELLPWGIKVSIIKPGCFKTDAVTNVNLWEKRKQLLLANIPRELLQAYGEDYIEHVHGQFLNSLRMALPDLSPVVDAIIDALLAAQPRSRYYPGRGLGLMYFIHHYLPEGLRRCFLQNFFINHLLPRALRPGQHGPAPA
Description: scintillation proximity assay (SPA), microsomes of HEK-293 cells transfected with mouse 11β-HSD2.

A further experiment deals with T4, human 11β-HSD2 (Homo sapiens, UniProt P80365).
T4 sequence (P80365 1-405): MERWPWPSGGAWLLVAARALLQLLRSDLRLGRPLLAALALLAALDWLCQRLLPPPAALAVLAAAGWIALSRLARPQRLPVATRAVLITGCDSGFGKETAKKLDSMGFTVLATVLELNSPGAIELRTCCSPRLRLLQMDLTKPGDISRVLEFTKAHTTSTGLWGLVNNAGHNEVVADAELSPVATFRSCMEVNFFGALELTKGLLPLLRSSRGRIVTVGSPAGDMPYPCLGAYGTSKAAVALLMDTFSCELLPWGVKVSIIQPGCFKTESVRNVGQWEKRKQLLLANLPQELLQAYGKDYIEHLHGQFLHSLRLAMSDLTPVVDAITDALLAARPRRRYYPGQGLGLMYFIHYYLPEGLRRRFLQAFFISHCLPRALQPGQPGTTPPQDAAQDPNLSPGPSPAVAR
In words: scintillation proximity assay (SPA), microsomes of HEK-293 cells transfected with human 11β-HSD2.

The target in another experiment is mouse 11β-HSD1 (Mus musculus, UniProt P50172). In words: scintillation proximity assay (SPA), microsomes of HEK-293 cells transfected with mouse 11β-HSD1. As to conditions: for Mouse SI (selectivity index): SI = IC50(HSD2)/IC50(HSD1); for inhibition at 1 µM: read-out: Inhibitory ratio m-HSD1, at 1.0 μM, averages of three determinations. For orientation: Scintillation proximity formats need no separation of bound from free tracer.

The target in another experiment is human 11β-HSD1 (Homo sapiens, UniProt P28845). Description: scintillation proximity assay (SPA), microsomes of HEK-293 cells transfected with human 11β-HSD1. The conditions noted are these: for Human SI (selectivity index): SI = IC50(HSD2)/IC50(HSD1); for inhibition at 1 µM: read-out: Inhibitory ratio h-HSD1, at 1.0 μM, averages of three determinations.
Setting [2] is: inhibition relative to MK544 10 μM.

Read-outs that look alike come from different tables or passages of the source. Some results are limits rather than exact numbers.

T1 sequence (P50172 whole entry): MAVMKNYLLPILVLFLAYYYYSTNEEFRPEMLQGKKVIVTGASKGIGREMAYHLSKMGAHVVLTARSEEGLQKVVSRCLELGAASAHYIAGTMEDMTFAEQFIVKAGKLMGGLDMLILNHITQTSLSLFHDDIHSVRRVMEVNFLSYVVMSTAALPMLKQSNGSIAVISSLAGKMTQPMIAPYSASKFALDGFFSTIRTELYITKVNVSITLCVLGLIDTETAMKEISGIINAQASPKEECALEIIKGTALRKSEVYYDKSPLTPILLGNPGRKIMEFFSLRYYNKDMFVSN
Chain of mouse 11β-HSD1 (P50172 whole entry): as above
T2 sequence (P50172 whole entry): as above
Chain of human 11β-HSD1 (P28845 whole entry): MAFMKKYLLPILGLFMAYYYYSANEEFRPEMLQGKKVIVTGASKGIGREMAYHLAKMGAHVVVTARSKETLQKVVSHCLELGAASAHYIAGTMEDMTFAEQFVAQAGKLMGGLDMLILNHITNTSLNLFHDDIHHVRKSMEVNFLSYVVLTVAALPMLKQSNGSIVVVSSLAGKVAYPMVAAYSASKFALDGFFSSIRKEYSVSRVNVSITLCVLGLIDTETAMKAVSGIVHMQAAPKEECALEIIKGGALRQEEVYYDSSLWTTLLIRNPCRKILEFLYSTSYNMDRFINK
Description for human 11β-HSD1: (§1) With diverse tanshinones in hand, inhibition of human and mouse 11β-HSD1 enzymatic potency was measured by scintillation proximity assay (SPA) using microsomes containing 11β-HSD1 [46, 47]. Results are reported as the average of two or three independent experiments at each concentration.
(§2) The SPA was used to screen for inhibitors of 11β-HSDs [48], with the microsome fractions prepared from the HEK-293 cells stably transfected with either human or mouse 11β-HSD1 or 11β-HSD2 as the enzyme source. […] Reactions were initiated by the addition of 11β-HSD1 or 11β-HSD2, enzyme. […] The plates were incubated under plastic film on an orbital shaker for 120 min at room temperature before counting. The amount of [^3H]-cortisol generated in 11β-HSD1 enzyme reaction or remaining from the 11β-HSD2 enzyme reaction was captured by the beads and determined in a microplate liquid scintillation counter. The % inhibition was calculated relative to a non-inhibited control. Data were obtained from two or three independent experiments. IC50 values were calculated from concentration–response curves by a non-linear regression analysis using Prism Version 6.
Description for human 11β-HSD2: as §1, §2
Description for mouse 11β-HSD1: as §1, §2
Description for mouse 11β-HSD2: as §1, §2

Broadly, the IC50 is the concentration that inhibits the measured activity by half. For `C1CCc2nnc(C34CC5CC(CC(C5)C3)C4)n2CC1` [MK544, reference compound], the IC50 in experiment [1] was 0.4 ± 0.1 µM. Further, the Max effect in experiment [1] (setting [2]) worked out at 98.0 ± 0.7%.
`Cc1coc2c1C(=O)C(=O)c1c-2ccc2c1CCC(=O)C2(C)C` [Compound 17]: the “decrease in 11β-HSD1 activity in liver” value at 11β-HSD1 in liver (8 h after treatment) amounted to 38.5%. For the same compound, the IC50 on mouse 11β-HSD2 was above 100 µM; at human 11β-HSD2 it was 5.9 ± 2.3 µM; in experiment [1], 1.4 ± 0.1 µM; against mouse 11β-HSD1 it was 0.0069 ± 0.0007 µM; against human 11β-HSD1, 0.21 µM. The Emax in experiment [1] (setting [2]) stood at 90 ± 0.4%. The “Mouse SI (selectivity index)” value at mouse 11β-HSD1 (Table 3) is given as > 14,492.7. The inhibition at 1 µM on mouse 11β-HSD1 is 84.6 ± 1.4%; on human 11β-HSD1, 63.5 ± 3.2%. Besides, the “Human SI (selectivity index)” value on human 11β-HSD1 (Table 3) was 28.0.
Regarding `Cc1coc2c1C(=O)C(=O)c1c-2ccc2c1C=CC(=O)C2(C)C` [Compound 14], the IC50 was above 100 µM against mouse 11β-HSD2; 5.9 ± 3.4 µM at human 11β-HSD2; above 4 µM in experiment [1]; 0.0539 ± 0.0093 µM against mouse 11β-HSD1; 0.3 µM on human 11β-HSD1. For the same compound, the Emax in experiment [1] (setting [2]) was found to be 104 ± 1.2%. In addition, the “Mouse SI (selectivity index)” value at mouse 11β-HSD1 (Table 3) is listed as above 1855.3. Further, the results for the inhibition at 1 µM at mouse 11β-HSD1 and on human 11β-HSD1 were 85.9 ± 1.6% and 57.2 ± 2%, respectively. At human 11β-HSD1 (Table 3), the “Human SI (selectivity index)” value was determined as 19.6.
Consider `CC1(C)CCCc2c1ccc1c2C(=O)C(=O)c2c(CO)coc2-1` [Compound 30], for which the “decrease in 11β-HSD1 activity in liver” value at 11β-HSD1 in liver (8 h after treatment) is given as 41.2%. Moreover, the IC50 against mouse 11β-HSD2 is above 100 µM; in experiment [1], 4.4 ± 0.1 µM; on mouse 11β-HSD1 it was 0.0222 ± 0.0006 µM; against human 11β-HSD1, 0.0578 ± 0.013 µM. Further, the Emax in experiment [1] (setting [2]) came out at 105%. In addition, on mouse 11β-HSD1 (Table 3), the “Mouse SI (selectivity index)” value is above 4510.6. In addition, the inhibition at 1 µM stood at 98.6 ± 0.7% at mouse 11β-HSD1 and 82 ± 2.7% at human 11β-HSD1.
Turning to `Cc1coc2c1C(=O)C(=O)c1c-2ccc2c1C=CCC2(C)C` [Compound 13], the IC50 against mouse 11β-HSD2 is above 100 µM; against human 11β-HSD2, 2.7 ± 1 µM; in experiment [1], 7.9 µM; at mouse 11β-HSD1, 0.0593 ± 0.0095 µM; against human 11β-HSD1 it was 0.27 µM. In addition, the Emax in experiment [1] (setting [2]) came out at 102 ± 0.3%. Moreover, the “Mouse SI (selectivity index)” value at mouse 11β-HSD1 (Table 3) was above 1689.2. Also, the inhibition at 1 µM at mouse 11β-HSD1 is 92.3 ± 2.7%; on human 11β-HSD1 it was 67.4 ± 1.6%. Besides, the “Human SI (selectivity index)” value on human 11β-HSD1 (Table 3) came to 9.9.
Take `Cc1c(CO)oc2c1C(=O)C(=O)c1c-2ccc2c1CCCC2(C)C` [Compound 28b]: the IC50 against mouse 11β-HSD2 was above 100 µM; at human 11β-HSD2 it was 6.3 ± 0.9 µM; in experiment [1], 3.1 ± 0.6 µM; against mouse 11β-HSD1, 0.0702 ± 0.0134 µM; on human 11β-HSD1 it was 0.0998 ± 0.0105 µM. The Emax in experiment [1] (setting [2]) is 100 ± 4%. Also, at mouse 11β-HSD1 (Table 3), the “Mouse SI (selectivity index)” value was above 1426.5. For the same compound, the inhibition at 1 µM worked out at 88.5 ± 0.1% at mouse 11β-HSD1 and 75.3 ± 0.8% on human 11β-HSD1. Besides, the “Human SI (selectivity index)” value on human 11β-HSD1 (Table 3) is reported as 62.9.
For the compound `Cc1coc2c1C(=O)C(=O)c1c-2ccc2c1CCCC2(C)C` [Compound 1, tanshinone IIA], the results for the “decrease in 11β-HSD1 activity in liver” value at 11β-HSD1 in liver (4 h after treatment) and at 11β-HSD1 in liver (8 h after treatment) were 32.9% and 48.4%, respectively. The IC50 against mouse 11β-HSD2 was above 1000 µM; on mouse 11β-HSD2 (read-out: Mouse (IC50) 11β-HSD2, Table 3, averages of two determinations) it was above 1000 µM; against human 11β-HSD2, 135 ± 72.5 µM; in experiment [1], 2 ± 0.6 µM; at mouse 11β-HSD1, 0.0322 ± 0.0025 µM; against human 11β-HSD1, 0.0353 ± 0.0154 µM. For the same compound, the Emax in experiment [1] (setting [2]) stood at 104 ± 1%. For the same compound, the “Mouse SI (selectivity index)” value was > 31,250 on mouse 11β-HSD1 (Table 1) and > 31,055.9 on mouse 11β-HSD1 (Table 3). Moreover, the inhibition at 1 µM came out at 89.6 ± 0.6% on mouse 11β-HSD1 and 76.6 ± 1.3% on human 11β-HSD1. In addition, on human 11β-HSD1 (Table 1), the “Human SI (selectivity index)” value worked out at 3838.
Consider `Cc1c(COCO)oc2c1C(=O)C(=O)c1c-2ccc2c1CCCC2(C)C` [Compound 28a], for which the IC50 against mouse 11β-HSD2 is above 100 µM; on human 11β-HSD2, 4.1 ± 0.7 µM; in experiment [1] it was 3.9 ± 0.1 µM; at mouse 11β-HSD1, 0.0793 ± 0.0162 µM; against human 11β-HSD1, 0.149 ± 0.0339 µM. Besides, in experiment [1] (setting [2]), the Emax was determined as 104 ± 0.9%. Also, at mouse 11β-HSD1 (Table 3), the “Mouse SI (selectivity index)” value is above 1261.0. In addition, the values for the inhibition at 1 µM at mouse 11β-HSD1 and at human 11β-HSD1 were 79.2 ± 2.2% and 74.3 ± 2.1%, respectively. Further, at human 11β-HSD1 (Table 3), the “Human SI (selectivity index)” value came out at 27.5.
With `Cc1c(-c2ccncc2)oc2c1C(=O)C(=O)c1c-2ccc2c1CCCC2(C)C` [Compound 27c], the IC50 is above 10 µM at mouse 11β-HSD2, 6.1 ± 0.7 µM against human 11β-HSD2, 0.0069 ± 0.0012 µM on mouse 11β-HSD1 and 0.126 ± 0.0005 µM on human 11β-HSD1. Also, at mouse 11β-HSD1 (Table 3), the “Mouse SI (selectivity index)” value was above 1451.4. In addition, the inhibition at 1 µM is 70.6 ± 0.5% on mouse 11β-HSD1 and 82.5 ± 0.9% at human 11β-HSD1. Moreover, on human 11β-HSD1 (Table 3), the “Human SI (selectivity index)” value worked out at 48.4.
For `CC1(C)C(=O)C=Cc2c1ccc1c2C(=O)C(=O)c2c(CO)coc2-1` [Compound 34], the IC50 against mouse 11β-HSD2 was above 100 µM; against human 11β-HSD2, 1.9 ± 0.3 µM; on mouse 11β-HSD1, 0.0672 ± 0.0064 µM; against human 11β-HSD1, 0.85 ± 0.2 µM. The “Mouse SI (selectivity index)” value at mouse 11β-HSD1 (Table 3) was above 1488.1. The figures for the inhibition at 1 µM at mouse 11β-HSD1 and at human 11β-HSD1 were 90.8 ± 1.7% and 53.9 ± 1.6%, respectively. For the same compound, on human 11β-HSD1 (Table 3), the “Human SI (selectivity index)” value worked out at 2.2.
